Experimental data: patent US12053506B2, “Romo1-derived antimicrobial peptides and variants thereof” (priority 2019, dated 2024)
No end group written: not given here.

Assays:
[1] = system: methicillin-resistant Staphylococcus aureus (ATCC 33591); details: Tables 11-15, no unit printed
Procedure: First, each of Pseudomonas aeruginosa (ATCC 27853) and Staphylococcus aureus (ATCC 29213) was cultured in 3% (w/v) TSB (Tryptic Soy Broth) liquid medium at 37° C. and 200 rpm for 4 hours, and then further cultured under the same conditions for 3 hours to a concentration of 5×10^6 CFU/ml. Strain solutions were prepared by diluting each of the further cultured strains with SP (sodium phosphate; 10 mM sodium phosphate, 1% TSB) buffer to a final concentration of 2×10^5 CFU/ml.
(§1) Then, each peptide at varying concentrations (0 μg/ml to 300 μg/ml) was dispensed into each well of a 96-well microplate, and 100 μl (1×10^5 CFU/ml) of each of the prepared strain solutions was added thereto, mixed therewith, and allowed to react with the peptide in an incubator at 37° C. for 1 hour.
In addition, 30 g/L of TS (tryptic soy) and 15 g/L of agar were dissolved in distilled water and sterilized, and then 25 ml of the solution was poured onto a 100 mm round plate and solidified at room temperature for one day or more, thereby preparing a TS agar plate. 10 μl of each reaction solution of the peptide and the strain was plated on the TS agar plate at a constant size, and incubated in an incubator at 37° C. for 18 hours, and then colony formation on the plate was checked.
Specifically, each type of bacteria was cultured in 3% (w/v) TSB (Tryptic Soy Broth) liquid medium at 37° C. and 200 rpm for 4 hours, and then further cultured under the same conditions for 3 hours to a concentration of 5×10^6 CFU/ml. Strain solutions were prepared by diluting each of the […] of 2×10^5 CFU/ml.
as §1, with “Then, the KU-5878” for “Then, each”
In addition, 10 μl of each reaction solution of the peptide and the strain was plated on the TS agar plate at a constant size, and incubated in an incubator at 37° C. for 18 hours, and then colony formation on the plate was checked.

[2] = system: Pseudomonas aeruginosa (ATCC 27853); assay type: cell-based; details: for MBC Pseudomonas aeruginosa: Tables 11-15, no unit printed; for MBC value (μg/ml) against Pseudomonas aeruginosa: ATCC 27853, 1 h
Text: (§2) Romo1 protein comprises two α-helices. The present inventors synthesized the α-helix 2 region having both hydrophilicity and hydrophobicity, and evaluated the antibacterial activity thereof using minimum bactericidal concentration (MBC) assay. The α-helix 2 region was named KU-5279 (the 52-79 amino acid region of Romo1 protein). Then, in order to identify peptides that are beneficial for human application and have excellent antibacterial activity, the present inventors synthesized several peptides comprising a sequence of contiguous amino acids starting at any amino acid selected from the 52-79 amino acid region of Romo1 protein, and comparatively evaluated the antibacterial activities of the peptides by minimum bactericidal concentration assay (See Table 1 below for information on each peptide). Evaluation of the antibacterial activity of each peptide by minimum bactericidal concentration assay was specifically performed as follows. First, each of Pseudomonas aeruginosa (ATCC 27853) and Staphylococcus aureus (ATCC 29213) was cultured in 3% (w/v) TSB (Tryptic Soy Broth) liquid medium at 37° C. and 200 rpm for 4 hours, and then further cultured under the same conditions for 3 hours to a concentration of 5×10^6 CFU/ml. Strain solutions were prepared by diluting each of the further cultured strains with SP (sodium phosphate; 10 mM sodium phosphate, 1% TSB) buffer to a final concentration of 2×10^5 CFU/ml. Then, each peptide at varying concentrations (0 μg/ml to 300 μg/ml) was dispensed into each well of a 96-well microplate, and 100 μl (1×10^5 CFU/ml) of each of the prepared strain solutions was added thereto, mixed therewith, and allowed to react with the peptide in an incubator at 37° C. for 1 hour. In addition, 30 g/L of TS (tryptic soy) and 15 g/L of agar were dissolved in distilled water and sterilized, and then 25 ml of the solution was poured onto a 100 mm round plate and solidified at room temperature for one day or more, thereby preparing a TS agar plate. 10 μl of each reaction solution of the peptide and the strain was plated on the TS agar plate at a constant size, and incubated in an incubator at 37° C. for 18 hours, and then colony formation on the plate was checked. The minimum bactericidal concentration was defined as the minimum concentration of the peptide at which no colony was formed, and the experimental results are shown in Table 1 below.

[3] = system: Staphylococcus aureus (ATCC 29213); assay type: cell-based; details: for MBC Staphylococcus aureus: Tables 11-15, no unit printed; for MBC value (μg/ml) against Staphylococcus aureus: ATCC 29213, 1 h
Text: as §2

CRPA = test: MBC, evaluation of antibacterial activities of KU-5878 variants; assay type: cell-based; details: Tables 11-15, no unit printed
Procedure: Variants were prepared by deleting one amino acid from the amino acid sequence of KU-5878 (SEQ ID NO: 13), and the antibacterial activities thereof were evaluated.
Variants were prepared by deleting two or more amino acids from the amino acid sequence of KU-5878 (SEQ ID NO: 13), and the antibacterial activities thereof were evaluated.
One amino acid in the amino acid sequence of KU-5878 (SEQ ID NO: 13) was substituted, and the antibacterial activities of the peptides were evaluated.
Substitutions of Q62K, S63K and T66K were sequentially added to the amino acid sequence of KU-5878-T59K, and the antibacterial activities of the peptides were evaluated.
An amino acid repeat sequence was added to the C-terminus of KU-5878, and the antibacterial activities of the peptides were evaluated. According to Table 15 below, when the R (arginine) repeat sequence or K (lysine) sequence was added to the C-terminus of KU-5878, the antibacterial activity of the peptide increased.

Substance	MBC MRSA [1] [µg/mL]	MBC Pseudomonas aeruginosa [2] [µg/mL]	MBC Staphylococcus aureus [3] [µg/mL]	MBC CRPA (CRPA) [µg/mL]	MBC value (μg/ml) against Pseudomonas aeruginosa [2] [µg/mL]	MBC value (μg/ml) against Staphylococcus aureus [3] [µg/mL]
KTMMQAGGTFGTFMAIGMGIR [KU-5878-S63A]	> 300	300	300	300		
KTMMQHGGTFGTFMAIGMGIR [KU-5878-S63H]	110	100	100	100		
KTMMQRGGTFGTFMAIGMGIR [KU-5878-S63R]	25	20	15	20		
KTMMQS-GTFGTF-AIGM-IR [5878-d64G, d71M, d76G]	200	200	200	200		
KTMMQS-GTFGTFMAIGMGIR [Peptide 5878-d64G]	100	100	100	110		
KTMMQSGG-FGTFMAIGMGIR [Peptide 5878-d66T]	90	90	90	100		
KTMMQSGGAFGTFMAIGMGIR [KU-5878-T66A]	> 300	> 300	> 300	> 300		
KTMMQSGGHFGTFMAIGMGIR [KU-5878-T66H]	> 300	> 300	> 300	> 300		
KTMMQSGGRFGTFMAIGMGIR [KU-5878-T66R]	90	80	90	80		
KTMMQSGGSFGTFMAIGMGIR [KU-5878-T66S]	> 300	> 300	> 300	> 300		
KTMMQSGGT-GTFMAIGMGIR [Peptide 5878-d67F]	200	200	200	200		
KTMMQSGGTAGTFMAIGMGIR [KU-5878-F67A]	> 300	> 300	> 300	> 300	>300	>300
KTMMQSGGTF-TFMAIGMGIR [Peptide 5878-d68G]	25	25	20	18		
KTMMQSGGTFG-FMAIGMGIR [Peptide 5878-d69T]	140	120	120	140		
KTMMQSGGTFGAFMAIGMGIR [KU-5878-T69A]	300	300	300	300		
KTMMQSGGTFGT-MAIGMGIR [Peptide 5878-d70F]	200	200	200	200		

Substance	MBC MRSA [1] [µg/mL]	MBC Pseudomonas aeruginosa [2] [µg/mL]	MBC Staphylococcus aureus [3] [µg/mL]	MBC CRPA (CRPA) [µg/mL]	MBC value (μg/ml) against Pseudomonas aeruginosa [2] [µg/mL]	MBC value (μg/ml) against Staphylococcus aureus [3] [µg/mL]
KTMMQSGGTFGTF-AIG-GIR [5878-d71M, d75M]	300	300	250	300		
KTMMQSGGTFGTF-AIGMGIR [Peptide 5878-d71M]	300	250	250	300		
KTMMQSGGTFGTFM-IGMGIR [Peptide 5878-d72A]	160	150	150	170		
KTMMQSGGTFGTFMA-GMGIR [Peptide 5878-d73I]	> 300	> 300	> 300	> 300		
KTMMQSGGTFGTFMAAGMGIR [KU-5878-I73A]	> 300	> 300	> 300	> 300	>300	>300
KTMMQSGGTFGTFMAI-MGIR [Peptide 5878-d74G]	25	20	25	30		
KTMMQSGGTFGTFMAIG-GIR [Peptide 5878-d75M]	110	100	100	100		
KTMMQSGGTFGTFMAIGM-IR [Peptide 5878-d76G]	90	80	70	90		
KTMMQSGGTFGTFMAIGMAIR [KU-5878-G76A]	> 300	> 300	> 300	> 300	>400	>400
KTMMQSGGTFGTFMAIGMG-R [Peptide 5878-d77I]	> 300	> 300	> 300	> 300		
KTMMQSGGTFGTFMAIGMGAR [KU-5878-I77A]	> 300	> 300	> 300	> 300	>300	>300
KTMMQSGGTFGTFMAIGMGGR [KU-5878-I77G]	90	80	90	100	80	90
KTMMQSGGTFGTFMAIGMGI- [Peptide 5878-d78R]	> 300	300	300	> 300		
KTMMQSGGTFGTFMAIGMGIRKK [Peptide 5878-KK]	16	15	16	16		
KTMMQSGGTFGTFMAIGMGIRQ [Peptide 5878-Q]	180	150	180	180		
KTMMQSGGTFGTFMAIGMGIRRRR [Peptide 5878-3R]	10	8	8	8		
